21 compounds from PMC11995724, “Antibiotic target discovery by integrated phenotypic and activity-based profiling of electrophilic fragments” (Cell chemical biology, 2025) can be followed below.

As usually defined, the viability is a read-out of living cells in per cent, often relative to untreated cells.

Each structure is given as a SMILES string.

The nature of the data set: in vitro. The conditions noted are these: human, hek293t cells.
Regarding `C=CC(=O)N1CCC(c2ccc(OC)cc2)C1` (stereo not drawn) [1-N16, 1-[3-(4-methoxyphenyl)pyrrolidin-1-yl]prop-2-en-1-one], the viability at 48 h, 25 µM stood at 92.1%.
Next, `C=CC(=O)NC(C)c1nc(C2CCCCC2)no1` (stereo not drawn) [1-N17, N-[1-(3-cyclohexyl-1,2,4-oxadiazol-5-yl)ethyl]prop-2-enamide]: 102%; `C=CC(=O)N1CCC(c2nc3ccccc3o2)CC1` [1-N18, 1-[4-(1,3-benzoxazol-2-yl)piperidin-1-yl]prop-2-en-1-one]: 80.1%; `C=CC(=O)N1CCN(C(=O)c2cc(C)no2)CC1` [1-N19, 1-[4-(3-methyl-1,2-oxazole-5-carbonyl)piperazin-1-yl]prop-2-en-1-one]: 102%.
Then `C=CC(=O)N1CCN(Cc2ccon2)CC1` [1-N20, 1-{4-[(1,2-oxazol-3-yl)methyl]piperazin-1-yl}prop-2-en-1-one], with 79.6%.
Then `C=CC(=O)N(C)Cc1ccncc1` [1-N21, N-methyl-N-[(pyridin-4-yl)methyl]prop-2-enamide], with 135%; and `C=CC(=O)NC1CN(C(C)=O)C1` [1-N22, N-(1-acetylazetidin-3-yl)prop-2-enamide], with 73.1%.
`C=CC(=O)Nc1c(C)ccc(Cl)c1CO` [1-O03, N-[3-chloro-2-(hydroxymethyl)-6-methylphenyl]prop-2-enamide]: the viability at 48 h, 25 µM is 67.5%.
Then `C=CC(=O)N1CCC(C(=O)Nc2[nH]nc(C(F)(F)F)c2C)CC1` [1-O04, N-[4-methyl-3-(trifluoromethyl)-1H-pyrazol-5-yl]-1-(prop-2-enoyl)piperidine-4-carboxamide], with 113%.
As for `C=CC(=O)N1CCOC(c2noc(C(C)C)n2)C1` (stereo not drawn) [1-O05, 1-{2-[5-(propan-2-yl)-1,2,4-oxadiazol-3-yl]morpholin-4-yl}prop-2-en-1-one], the viability at 48 h, 25 µM is 87%.
Turning to `C=CC(=O)Nc1nn(C2CCCC2)c(C)c1Cl` [1-O06, N-(4-chloro-1-cyclopentyl-5-methyl-1H-pyrazol-3-yl)prop-2-enamide], the viability at 48 h, 25 µM came to 78.2%.
Then `C=CC(=O)NCc1ccno1` [1-O07, N-[(1,2-oxazol-5-yl)methyl]prop-2-enamide], with 68.4%; and `C=CC(=O)NC1CCC(c2nc(CC)no2)CC1` (stereo not drawn) [1-O08, N-[4-(3-ethyl-1,2,4-oxadiazol-5-yl)cyclohexyl]prop-2-enamide], with 92.2%; and `C=CC(=O)Nc1cnn(-c2ccncc2)c1C(F)F` [1-O09, N-[5-(difluoromethyl)-1-(pyridin-4-yl)-1H-pyrazol-4-yl]prop-2-enamide], with 67.8%.
In the case of `C=CC(=O)Nc1ccccc1Cl` [1-O10, N-(2-chlorophenyl)prop-2-enamide], the viability at 48 h, 25 µM was 63%.
As for `C=CC(=O)Nc1ccc2c(c1)CCO2` [1-O11, N-(2,3-dihydro-1-benzofuran-5-yl)prop-2-enamide], the viability at 48 h, 25 µM was 87.8%.
With `C=CC(=O)NCC(F)(F)c1cccnc1` [1-O12, N-[2,2-difluoro-2-(pyridin-3-yl)ethyl]prop-2-enamide], the viability at 48 h, 25 µM was 111%.
As for `C=CC(=O)Nc1ccc(C)cc1S(=O)(=O)N1CCOCC1` [1-O13, N-[4-methyl-2-(morpholine-4-sulfonyl)phenyl]prop-2-enamide], the viability at 48 h, 25 µM amounted to 74.9%.
Then `C=CC(=O)NCc1nnc(C(F)(F)F)s1` [1-O14, N-{[5-(trifluoromethyl)-1,3,4-thiadiazol-2-yl]methyl}prop-2-enamide], with 131%; and `C=CC(=O)NC1(c2ccccc2)CCCC1` [1-O15, N-(1-phenylcyclopentyl)prop-2-enamide], with 95.6%.
Then `C=CC(=O)NCC1CCS(=O)(=O)C1(C)C` (stereo not drawn) [1-O16, N-[(2,2-dimethyl-1,1-dioxo-1lambda6-thiolan-3-yl)methyl]prop-2-enamide], with 103%.
